According to paper PMC11124336 (Molecules, 2024):

Legend:
[1] = molecular target: T1, Type II NADH dehydrogenase (NDH-2, NdhC) (Staphylococcus aureus, UniProt Q2FZV7); experiment: NADH oxidation assay at […] nm with menadione; format: biochemical
T1 construct: gene SAOUHSC_00878; N-terminal 6His-tagged NDH-2 (ndhC gene from S. aureus 25923)
T1 sequence (Q2FZV7 1-402): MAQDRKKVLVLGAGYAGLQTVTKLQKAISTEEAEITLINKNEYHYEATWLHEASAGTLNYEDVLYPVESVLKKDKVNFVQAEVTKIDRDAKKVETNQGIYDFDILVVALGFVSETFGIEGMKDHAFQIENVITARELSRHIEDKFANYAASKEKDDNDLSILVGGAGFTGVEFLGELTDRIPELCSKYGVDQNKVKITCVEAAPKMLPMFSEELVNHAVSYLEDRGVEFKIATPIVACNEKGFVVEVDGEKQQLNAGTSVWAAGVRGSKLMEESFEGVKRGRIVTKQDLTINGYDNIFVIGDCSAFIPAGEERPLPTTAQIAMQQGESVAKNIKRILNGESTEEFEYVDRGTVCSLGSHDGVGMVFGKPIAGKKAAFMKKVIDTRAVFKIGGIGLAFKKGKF

[2] = molecular target: T1, Type II NADH dehydrogenase (NDH-2, NdhC); experiment: activity of FAD-depleted purified enzyme restored by added FAD; format: biochemical
[3] = substrate: CC1=CC(=O)c2ccccc2C1=O; experiment: steady-state kinetics of purified enzyme (Km); format: biochemical, Staphylococcus aureus; details: FAD
[4] = substrate: NC(=O)C1=CN([C@@H]2O[C@H](COP(=O)(O)OP(=O)(O)OC[C@H]3O[C@@H](n4cnc5c(N)ncnc54)[C@H](O)[C@@H]3O)[C@@H](O)[C@H]2O)C=CC1; experiment: steady-state kinetics of purified enzyme (Km); format: biochemical, Staphylococcus aureus; details: FAD

CCCCCCCc1cc(O)c2ccccc2[n+]1[O-] [HQNO, 2-heptyl-4-hydroxyquinoline-N-oxide]
IC50 [1]: 9 µM

Cc1cc2nc3c(=O)[nH]c(=O)nc-3n(C[C@H](O)[C@H](O)[C@H](O)COP(=O)(O)OP(=O)(O)OC[C@H]3O[C@@H](n4cnc5c(N)ncnc54)[C@H](O)[C@@H]3O)c2cc1C [FAD]
activity of FAD-depleted purified enzyme restored by added FAD [2]: the addition of exogenous FAD to the reaction mix restored the NADH dehydrogenase activity of the recombinant protein

B1: Type II NADH dehydrogenase (NDH-2, NdhC) (Staphylococcus aureus subsp. aureus NCTC 8325) (protein)
chain: T1 sequence (Q2FZV7 1-402)
notes: N-terminal 6His-tagged NDH-2 (ndhC gene from S. aureus 25923)
Km [3]: 19.9 ± 0.7 µM | Km [4]: 90.8 ± 16.2 µM
